The results in this text go back to patent US20100311714A1, “1H-IMIDAZO[4,5-c]QUINOLINONE COMPOUNDS” (priority 2009, published 2010).

Data set [1] in a line: High-throughput equilibrium solubility at pH 6.8. Format: physicochemical. The settings on record: pH 6.8, aqueous buffer, thermodynamic from solid; read-out: HT-Eq Sol/pH 6.8. The essentials:
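Solubility was measured at pH 6.8 following the cited Zhou et al. (2007) procedure.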

Data set [2] can be described thus: Parallel Artificial Membrane Permeability Assay (PAMPA) at pH 6.8. The data set is classed as physicochemical. The method, boiled down: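 PAMPA permeability measured at pH 6.8 following the Wohnsland and Faller method; value reported as log Pe.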
In another data set the target is T1, mTOR (Homo sapiens, UniProt P42345).
T1 construct: purchased Invitrogen Corporation (Carlsbad/Calif., USA) PV4753
In words: Biochemical assay for m-TOR by TR-FRET. The settings on record: read-out: EPK_mTOR/IC50. The method, boiled down: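 mTOR (0.5 nM) phosphorylates GFP-4EBP1 (400 nM) with 8 μM ATP at rt in 50 mM HEPES pH 7.5, 10 mM MnCl2, 50 mM NaCl, 1 mM EGTA, 1 mM DTT; compounds 0.003–10 μM final. EDTA stop with Tb-anti-p4EBP1[pT46] antibody (0.5 nM); TR-FRET read after 15 min against no-enzyme and vehicle controls.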
Background: TR-FRET usually uses a lanthanide donor and a delayed reading to cut background.

Converted amounts (≈) assume the structure as drawn. Bounds are passed on as bounds.

T1 sequence (P42345 1360-2549 limits assumed): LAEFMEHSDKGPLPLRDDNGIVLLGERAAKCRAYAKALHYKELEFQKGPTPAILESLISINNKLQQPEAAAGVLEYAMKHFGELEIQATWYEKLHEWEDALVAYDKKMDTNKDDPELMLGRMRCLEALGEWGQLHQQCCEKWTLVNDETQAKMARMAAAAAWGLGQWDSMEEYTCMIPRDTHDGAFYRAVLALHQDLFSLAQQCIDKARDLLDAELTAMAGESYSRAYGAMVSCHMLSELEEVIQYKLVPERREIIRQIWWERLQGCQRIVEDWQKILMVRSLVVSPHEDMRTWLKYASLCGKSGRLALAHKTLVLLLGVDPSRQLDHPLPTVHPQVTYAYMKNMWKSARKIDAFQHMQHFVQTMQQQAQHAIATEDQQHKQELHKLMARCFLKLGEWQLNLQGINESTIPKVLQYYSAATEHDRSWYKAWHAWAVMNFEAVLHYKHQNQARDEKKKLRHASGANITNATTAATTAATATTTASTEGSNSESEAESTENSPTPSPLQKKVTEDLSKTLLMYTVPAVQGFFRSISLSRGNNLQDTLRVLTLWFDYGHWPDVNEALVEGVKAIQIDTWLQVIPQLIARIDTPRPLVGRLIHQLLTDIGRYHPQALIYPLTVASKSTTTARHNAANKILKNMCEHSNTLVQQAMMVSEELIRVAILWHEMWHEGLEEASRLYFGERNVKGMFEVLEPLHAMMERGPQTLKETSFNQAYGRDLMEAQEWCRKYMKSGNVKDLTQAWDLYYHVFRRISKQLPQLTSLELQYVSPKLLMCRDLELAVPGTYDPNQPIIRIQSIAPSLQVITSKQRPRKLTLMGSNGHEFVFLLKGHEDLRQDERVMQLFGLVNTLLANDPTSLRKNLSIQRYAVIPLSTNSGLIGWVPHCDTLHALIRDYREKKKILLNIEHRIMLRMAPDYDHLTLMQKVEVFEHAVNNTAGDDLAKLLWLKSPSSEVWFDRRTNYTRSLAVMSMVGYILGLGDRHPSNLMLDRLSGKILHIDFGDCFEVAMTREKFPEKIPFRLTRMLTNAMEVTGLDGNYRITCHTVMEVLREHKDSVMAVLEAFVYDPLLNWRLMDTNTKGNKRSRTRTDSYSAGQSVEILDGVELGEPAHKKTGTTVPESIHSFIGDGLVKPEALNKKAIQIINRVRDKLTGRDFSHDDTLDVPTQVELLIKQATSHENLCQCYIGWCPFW

Regarding `CCOc1cc(-c2ccc3ncc4c(c3c2)n(-c2ccc(F)nc2C)c(=O)n4C)cnc1COC` [Example 7.5, 8-(5-Ethoxy-6-methoxymethyl-pyridin-3-yl)-1-(6-fluoro-2-methyl-pyridin-3-yl)-3-methyl-1,3-dihydro-imidazo[4,5-c]quinolin-2-one], in data set [1], the solubility thermodynamic stood at 94 µg/mL (≈ 199 µM). For the same compound, in data set [2], the “HT-Perm logPe pH6.8” value is listed as −3.7. On mTOR, the IC50 was 0.088 µM.
For `Cc1nc(F)ccc1-n1c(=O)n(C)c2cnc3ccc(-c4cncc(C(C)(C)O)c4)cc3c21` [Example 7.8, 1-(6-Fluoro-2-methyl-pyridin-3-yl)-8-[5-(1-hydroxy-1-methyl-ethyl)-pyridin-3-yl]-3-methyl-1,3-dihydro-imidazo[4,5-c]quinolin-2-one], in that order: 372 µg/mL (≈ 839 µM), −5.5 and 0.086 µM.
Taken in the same sequence, the figures for `Cc1nc(N2CCN(C)C(=O)C2)ccc1-n1c(=O)n(C)c2cnc3ccc(-c4cnc(N)c(C(F)(F)F)c4)cc3c21` [Example 21.1, 8-(6-Amino-5-trifluoromethyl-pyridin-3-yl)-3-methyl-1-[2-methyl-6-(4-methyl-3-oxo-piperazin-1-yl)-pyridin-3-yl]-1,3-dihydro-imidazo[4,5-c]quinolin-2-one] were 22 µg/mL (≈ 39.1 µM), −6.1 and below 0.003 µM.
Taken in the same sequence, the figures for `CCOc1cc(-c2ccc3ncc4c(c3c2)n(-c2ccc(OCCOC)nc2C)c(=O)n4C)cnc1COC` [Example 22.1, 8-(5-Ethoxy-6-methoxymethyl-pyridin-3-yl)-1-[6-(2-methoxy-ethoxy)-2-methyl-pyridin-3-yl]-3-methyl-1,3-dihydro-imidazo[4,5-c]quinolin-2-one] were 7 µg/mL (≈ 13.2 µM), −3.8 and 0.098 µM.
Turning to `COCc1ncc(-c2ccc3ncc4c(c3c2)n(-c2ccc(N3CCC3)nc2C)c(=O)n4C)cc1OC(C)C` [Example 23.2, 1-(6-Azetidin-1-yl-2-methyl-pyridin-3-yl)-8-(5-isopropoxy-6-methoxymethyl-pyridin-3-yl)-3-methyl-1,3-dihydro-imidazo[4,5-c]quinolin-2-one], in data set [1], the solubility thermodynamic worked out at 264 µg/mL (≈ 503 µM). Also, the “HT-Perm logPe pH6.8” value in data set [2] is −3.7. For the same compound, the IC50 on mTOR is 0.044 µM.
For the compound `Cc1nc(N2CCC2)ccc1-n1c(=O)n(C)c2cnc3ccc(-c4cncc(C(C)(C)O)c4)cc3c21` [Example 23.3, 1-(6-Azetidin-1-yl-2-methyl-pyridin-3-yl)-8-[5-(1-hydroxy-1-methyl-ethyl)-pyridin-3-yl]-3-methyl-1,3-dihydro-imidazo[4,5-c]quinolin-2-one], in data set [1], the solubility thermodynamic came out at 204 µg/mL (≈ 424 µM). Moreover, the “HT-Perm logPe pH6.8” value in data set [2] is listed as −5. The IC50 at mTOR is 0.007 µM.
In the case of `CCOc1cc(-c2ccc3ncc4c(c3c2)n(-c2ccc(N3CCC3)nc2C)c(=O)n4C)cnc1COC` [Example 23.5, 1-(6-Azetidin-1-yl-2-methyl-pyridin-3-yl)-8-(5-ethoxy-6-methoxymethyl-pyridin-3-yl)-3-methyl-1,3-dihydro-imidazo[4,5-c]quinolin-2-one], the solubility thermodynamic in data set [1] came to 69 µg/mL (≈ 135 µM). Also, the “HT-Perm logPe pH6.8” value in data set [2] is reported as −3.8. For the same compound, the IC50 on mTOR is 0.025 µM.
For `COCc1ncc(-c2ccc3ncc4c(c3c2)n(-c2ccc(N3CCC3)nc2C)c(=O)n4C)cc1OC` [Example 23.6, 1-(6-Azetidin-1-yl-2-methyl-pyridin-3-yl)-8-(5-methoxy-6-methoxymethyl-pyridin-3-yl)-3-methyl-1,3-dihydro-imidazo[4,5-c]quinolin-2-one], in that order: 21 µg/mL (≈ 42.3 µM), −4.2 and 0.137 µM.
As to `CCNc1cc(-c2ccc3ncc4c(c3c2)n(-c2ccc(N3CCC3)nc2C)c(=O)n4C)cnc1CO` [Example 23.8, 1-(6-Azetidin-1-yl-2-methyl-pyridin-3-yl)-8-(5-ethylamino-6-hydroxymethyl-pyridin-3-yl)-3-methyl-1,3-dihydro-imidazo[4,5-c]quinolin-2-one], the solubility thermodynamic in data set [1] was found to be 57 µg/mL (≈ 115 µM). Moreover, the “HT-Perm logPe pH6.8” value in data set [2] is reported as −5.7. Further, the IC50 at mTOR amounted to 0.004 µM.
As for `Cc1nc(N2CCC2)ccc1-n1c(=O)n(C)c2cnc3ccc(-c4cncc(OC(C)C)c4)cc3c21` [Example 23.9, 1-(6-Azetidin-1-yl-2-methyl-pyridin-3-yl)-8-(5-isopropoxy-pyridin-3-yl)-3-methyl-1,3-dihydro-imidazo[4,5-c]quinolin-2-one], the solubility thermodynamic in data set [1] turned out to be 35 µg/mL (≈ 72.8 µM). In addition, the “HT-Perm logPe pH6.8” value in data set [2] is −3.7. Besides, the IC50 on mTOR came to 0.037 µM.
For `CNc1ncc(-c2ccc3ncc4c(c3c2)n(-c2ccc(N3CC(F)(F)C3)nc2C)c(=O)n4C)cn1` [Example 24.1, 1-[6-(3,3-Difluoro-azetidin-1-yl)-2-methyl-pyridin-3-yl]-3-methyl-8-(2-methylamino-pyrimidin-5-yl)-1,3-dihydro-imidazo[4,5-c]quinolin-2-one], in data set [1], the solubility thermodynamic was found to be 59 µg/mL (≈ 121 µM). Besides, the “HT-Perm logPe pH6.8” value in data set [2] was −3.9. In addition, the IC50 on mTOR came out at 0.021 µM.
Regarding `CCOc1cc(-c2ccc3ncc4c(c3c2)n(-c2ccc(N3CCCC3)nc2C)c(=O)n4C)cnc1COC` [Example 25.2, 8-(5-Ethoxy-6-methoxymethyl-pyridin-3-yl)-3-methyl-1-(2-methyl-6-pyrrolidin-1-yl-pyridin-3-yl)-1,3-dihydro-imidazo[4,5-c]quinolin-2-one], the solubility thermodynamic in data set [1] is 187 µg/mL (≈ 356 µM). In addition, in data set [2], the “HT-Perm logPe pH6.8” value was −3.9. Also, at mTOR, the IC50 was 0.076 µM.
`Cc1nc(N2CCCC2)ccc1-n1c(=O)n(C)c2cnc3ccc(-c4cncc(C(C)(C)O)c4)cc3c21` [Example 25.3, 8-[5-(1-Hydroxy-1-methyl-ethyl)-pyridin-3-yl]-3-methyl-1-(2-methyl-6-pyrrolidin-1-yl-pyridin-3-yl)-1,3-dihydro-imidazo[4,5-c]quinolin-2-one]: in data set [1], the solubility thermodynamic was 99 µg/mL (≈ 200 µM). Moreover, in data set [2], the “HT-Perm logPe pH6.8” value is reported as −4.5. Further, at mTOR, the IC50 stood at 0.012 µM.
With `Cc1nc(N(C)CCO)ccc1-n1c(=O)n(C)c2cnc3ccc(-c4cnc(N)c(C(F)(F)F)c4)cc3c21` [Example 26.1, 8-(6-Amino-5-trifluoromethyl-pyridin-3-yl)-1-{6-[(2-hydroxy-ethyl)-methyl-amino]-2-methyl-pyridin-3-yl}-3-methyl-1,3-dihydro-imidazo[4,5-c]quinolin-2-one], in data set [1], the solubility thermodynamic was determined as 4 µg/mL (≈ 7.64 µM). Moreover, the “HT-Perm logPe pH6.8” value in data set [2] is −4.2. Further, the IC50 on mTOR was below 0.006 µM.
Turning to `CNc1ncc(-c2ccc3ncc4c(c3c2)n(-c2ccc(N(C)CCO)nc2C)c(=O)n4C)cn1` [Example 26.2, 1-{6-[(2-Hydroxy-ethyl)-methyl-amino]-2-methyl-pyridin-3-yl}-3-methyl-8-(2-methylamino-pyrimidin-5-yl)-1,3-dihydro-imidazo[4,5-c]quinolin-2-one], in data set [1], the solubility thermodynamic turned out to be 23 µg/mL (≈ 48.9 µM). The “HT-Perm logPe pH6.8” value in data set [2] is on record as −4.9. In addition, the IC50 on mTOR stood at 0.003 µM.
As for `CNc1ncc(-c2ccc3ncc4c(c3c2)n(-c2ccc(N3CCC(O)C3)nc2C)c(=O)n4C)cn1` (stereo not drawn) [Example 27.2, 1-[6-(3-Hydroxy-pyrrolidin-1-yl)-2-methyl-pyridin-3-yl]-3-methyl-8-(2-methylamino-pyrimidin-5-yl)-1,3-dihydro-imidazo[4,5-c]quinolin-2-one], the solubility thermodynamic in data set [1] was 67 µg/mL (≈ 139 µM). Also, the “HT-Perm logPe pH6.8” value in data set [2] is reported as −5.1. Also, at mTOR, the IC50 came to 0.006 µM.
In the case of `COC1CCN(c2ccc(-n3c(=O)n(C)c4cnc5ccc(-c6cncc(C(C)(C)O)c6)cc5c43)c(C)n2)C1` (stereo not drawn) [Example 28.1, 8-[5-(1-Hydroxy-1-methyl-ethyl)-pyridin-3-yl]-1-[6-(3-methoxy-pyrrolidin-1-yl)-2-methyl-pyridin-3-yl]-3-methyl-1,3-dihydro-imidazo[4,5-c]quinolin-2-one], the solubility thermodynamic in data set [1] came out at 427 µg/mL (≈ 814 µM). Moreover, in data set [2], the “HT-Perm logPe pH6.8” value is recorded as −5.1. The IC50 at mTOR is 0.022 µM.
For `CCNc1cc(-c2ccc3ncc4c(c3c2)n(-c2ccc(N3CC(O)C3)nc2C)c(=O)n4C)cnc1CO` [Example 29.2, 8-(5-Ethylamino-6-hydroxymethyl-pyridin-3-yl)-1-[6-(3-hydroxy-azetidin-1-yl)-2-methyl-pyridin-3-yl]-3-methyl-1,3-dihydro-imidazo[4,5-c]quinolin-2-one], the solubility thermodynamic in data set [1] was determined as 57 µg/mL (≈ 111 µM). Further, in data set [2], the “HT-Perm logPe pH6.8” value is reported as −7.1. Also, the IC50 on mTOR was found to be 0.005 µM.
Take `CNc1ncc(-c2ccc3ncc4c(c3c2)n(-c2ccc(N3CC(O)C3)nc2C)c(=O)n4C)cc1F` [Example 29.3, 8-(5-Fluoro-6-methylamino-pyridin-3-yl)-1-[6-(3-hydroxy-azetidin-1-yl)-2-methyl-pyridin-3-yl]-3-methyl-1,3-dihydro-imidazo[4,5-c]quinolin-2-one]: in data set [1], the solubility thermodynamic stood at 56 µg/mL (≈ 115 µM). For the same compound, the “HT-Perm logPe pH6.8” value in data set [2] was −5.1. Moreover, the IC50 at mTOR amounted to 0.008 µM.
Taken in the same sequence, the figures for `CNc1ncc(-c2ccc3ncc4c(c3c2)n(-c2ccc(N3CC(O)C3)nc2C)c(=O)n4C)cc1C(F)(F)F` [Example 29.4, 1-[6-(3-Hydroxy-azetidin-1-yl)-2-methyl-pyridin-3-yl]-3-methyl-8-(6-methylamino-5-trifluoromethyl-pyridin-3-yl)-1,3-dihydro-imidazo[4,5-c]quinolin-2-one] were 44 µg/mL (≈ 82.2 µM), −5 and 0.012 µM.
